# Results reported in patent US10538498B2, “1,3,4-oxadiazole sulfonamide derivative compounds as histone deacetylase 6 inhibitor, and the pharmaceutical composition comprising the same” (Chong Kun Dang Pharmaceutical Corp., priority 2015, dated 2020).
# Biological target: T1, human recombinant HDAC6 (Homo sapiens, UniProt Q9UBN7)
# T1 construct: purchased Calbiochem 382180
# T1 sequence (Q9UBN7 1-1215): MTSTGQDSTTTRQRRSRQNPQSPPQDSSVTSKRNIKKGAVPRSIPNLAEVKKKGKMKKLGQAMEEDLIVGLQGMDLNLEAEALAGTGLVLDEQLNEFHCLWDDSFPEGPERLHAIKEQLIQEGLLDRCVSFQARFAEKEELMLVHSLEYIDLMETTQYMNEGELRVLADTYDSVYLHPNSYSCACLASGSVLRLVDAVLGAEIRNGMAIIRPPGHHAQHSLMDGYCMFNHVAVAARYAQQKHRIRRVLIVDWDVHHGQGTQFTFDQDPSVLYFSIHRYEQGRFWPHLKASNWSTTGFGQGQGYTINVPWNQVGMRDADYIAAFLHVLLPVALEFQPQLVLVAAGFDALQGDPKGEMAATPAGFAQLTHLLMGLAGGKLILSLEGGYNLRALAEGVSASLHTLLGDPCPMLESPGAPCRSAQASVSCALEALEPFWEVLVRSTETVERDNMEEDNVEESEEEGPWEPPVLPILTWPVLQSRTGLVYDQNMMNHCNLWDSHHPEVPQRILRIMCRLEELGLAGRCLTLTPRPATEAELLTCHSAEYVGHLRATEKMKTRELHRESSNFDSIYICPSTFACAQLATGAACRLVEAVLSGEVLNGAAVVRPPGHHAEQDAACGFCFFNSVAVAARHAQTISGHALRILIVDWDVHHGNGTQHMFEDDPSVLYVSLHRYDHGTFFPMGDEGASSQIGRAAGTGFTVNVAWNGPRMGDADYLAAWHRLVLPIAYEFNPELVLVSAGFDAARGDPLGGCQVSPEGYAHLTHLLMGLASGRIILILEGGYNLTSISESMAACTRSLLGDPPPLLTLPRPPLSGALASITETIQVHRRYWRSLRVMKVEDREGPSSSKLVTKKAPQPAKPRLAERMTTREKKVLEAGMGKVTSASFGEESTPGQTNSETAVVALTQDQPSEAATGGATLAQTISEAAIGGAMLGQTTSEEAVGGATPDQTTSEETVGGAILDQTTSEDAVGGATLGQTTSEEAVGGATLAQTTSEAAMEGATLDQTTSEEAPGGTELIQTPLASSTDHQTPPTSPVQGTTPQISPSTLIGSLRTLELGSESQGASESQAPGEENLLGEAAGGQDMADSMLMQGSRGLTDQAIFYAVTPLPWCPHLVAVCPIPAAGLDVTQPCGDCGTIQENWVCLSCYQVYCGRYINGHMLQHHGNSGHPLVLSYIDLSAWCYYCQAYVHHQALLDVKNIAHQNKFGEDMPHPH
# Experiment: HDAC6 enzyme activity inhibition assay (HDAC Fluorimetric Drug Discovery Kit)
# Type: biochemical
# Conditions: for HDAC6 selectivity (fold): HDAC1 vs HDAC6; for IC50: same protocol as the HDAC1 enzyme activity test
# How it was run: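 IC50s derived from fluorescence (Ex 360, Em 460) read after a 30-min developer step. Beforehand, compounds in 5-fold dilution series reacted 60 min at 30° C with 0.3 μg human recombinant enzyme and 10 μM Fluor de Lys-SIRT1 substrate.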
HDAC6 selectivity (fold),IC50,SMILES
1786 fold,0.056 µM,"CS(=O)(=O)N(Cc1ccc(-c2nnc(C(F)F)o2)cc1F)C1CCCCC1 [Compound 11292, N-cyclohexyl-N-(4-(5-(difluoromethyl)-1,3,4-oxadiazol-2-yl)-2-fluorobenzyl)methanesulfonamide]"
909 fold,0.11 µM,"CS(=O)(=O)N(Cc1ccc(-c2nnc(C(F)(F)F)o2)cn1)c1cccc(C(F)(F)F)c1 [Compound 11323, N-((5-(5-(trifluoromethyl)-1,3,4-oxadiazol-2-yl)pyridin-2-yl)methyl)-N-(3-(trifluoromethyl)phenyl)methanesulfonamide]"
4762 fold,0.021 µM,"CS(=O)(=O)N(Cc1ccc(-c2nnc(C(F)F)o2)cn1)c1cccc(C(F)(F)F)c1 [Compound 11324, N-((5-(5-(difluoromethyl)-1,3,4-oxadiazol-2-yl)pyridin-2-yl)methyl)-N-(3-(trifluoromethyl)phenyl)methanesulfonamide]"
195 fold,0.513 µM,"CC(C)(C)OC(=O)N1CCC(N(Cc2ccc(-c3nnc(C(F)F)o3)cc2F)S(C)(=O)=O)CC1 [Compound 11338, tert-butyl 4-(N-(4-(5-(difluoromethyl)-1,3,4-oxadiazol-2-yl)-2-fluorobenzyl)methylsulfonamido)piperidine-1-carboxylate]"
3571 fold,0.028 µM,"CS(=O)(=O)N(Cc1ccc(-c2nnc(C(F)F)o2)cn1)c1ccc2c(c1)OCO2 [Compound 11345, N-(benzo[d][1,3]dioxol-5-yl)-N-((5-(5-(difluoromethyl)-1,3,4-oxadiazol-2-yl)pyridin-2-yl)methyl)methanesulfonamide]"
4348 fold,0.023 µM,"COc1ccc(N(Cc2ccc(-c3nnc(C(F)F)o3)cn2)S(C)(=O)=O)cc1 [Compound 11346, N-((5-(5-(difluoromethyl)-1,3,4-oxadiazol-2-yl)pyridin-2-yl)methyl)-N-(4-methoxyphenyl)methanesulfonamide]"
971 fold,0.103 µM,"CS(=O)(=O)N(Cc1ccc(-c2nnc(C(F)F)o2)cc1)c1ccc(Br)cn1 [Compound 11347, N-(5-bromopyridin-2-yl)-N-(4-(5-(difluoromethyl)-1,3,4-oxadiazol-2-yl)benzyl)methanesulfonamide]"
758 fold,0.132 µM,CS(=O)(=O)N(Cc1ccc(-c2nnc(C(F)F)o2)cc1)c1ccc(Cl)cn1 [Compound 11348]
10000 fold,0.01 µM,"O=S1(=O)CCC(S(=O)(=O)N(Cc2ccc(-c3nnc(C(F)F)o3)cn2)c2ccccc2)CC1 [Compound 11350, N-((5-(5-(difluoromethyl)-1,3,4-oxadiazol-2-yl)pyridin-2-yl)methyl)-N-phenyltetrahydro-2H-thiopyran-4-sulfonamide 1,1-dioxide]"
1449 fold,0.069 µM,"CS(=O)(=O)N(Cc1ccc(-c2nnc(C(F)F)o2)cn1)C1CCCCC1 [Compound 11351, N-cyclohexyl-N-((5-(5-(difluoromethyl)-1,3,4-oxadiazol-2-yl)pyridin-2-yl)methyl)methanesulfonamide]"
12500 fold,0.008 µM,"CS(=O)(=O)N(Cc1ccc(-c2nnc(C(F)F)o2)cn1)c1cccc(Cl)c1 [Compound 11352, N-(3-chlorophenyl)-N-((5-(5-(difluoromethyl)-1,3,4-oxadiazol-2-yl)pyridin-2-yl)methyl)methanesulfonamide]"
3846 fold,0.026 µM,"CS(=O)(=O)N(Cc1ccc(-c2nnc(C(F)F)o2)cn1)c1cccnc1 [Compound 11353, N-((5-(5-(difluoromethyl)-1,3,4-oxadiazol-2-yl)pyridin-2-yl)methyl)-N-(pyridin-3-yl)methanesulfonamide]"
